Measurements published in PMC9501899 (Journal of the American Chemical Society, 2022).
Read-outs that look alike come from different tables or passages of the source.

Target: T1, human LRRK2 (Homo sapiens, UniProt Q5S007)
T1 construct: endogenous in cells; host or cells: human PBMCs from healthy donors
Assay: LRRK2 degradation in peripheral blood mononuclear cells (PBMCs)
Format: cell-based
Description: The relative LRRK2 protein and pRab10 levels were obtained by quantifying the ratios of total LRRK2/GAPDH or Rab10-pThr73/total Rab10, respectively, and the ratios were normalized to the DMSO-treated samples. The relative LRRK2 and pRab10 protein levels were plotted against the compound concentration and fitted against “nonlinear regression, one site-fit log IC50” in GraphPad to obtain the DC50 and EC50 values. Data points are presented as mean ± standard error of the mean (SEM) from three biological independent replicates. […] The relative LRRK2 protein and pRab10 levels were obtained by quantifying the ratios of total LRRK2/ GAPDH or Rab10-pThr73/total Rab10, respectively, and the ratios were normalized to the DMSO-treated samples. The relative LRRK2 and pRab10 protein levels were plotted against the treatment time and were fitted against “nonlinear regression, one-phase decay” in GraphPad to obtain the half-life (T1/2) values. Data points are presented as mean ± SEM from three biological independent replicates. […] The relative LRRK2 levels were obtained by quantifying the ratios of total LRRK2/tubulin and normalized to the DMSO-treated samples. The relative LRRK2 levels were plotted against the compound concentration and fitted against “nonlinear regression, one site-fit log IC50” in GraphPad to obtain the DC50 values.
PBMC cells were separated from human blood from healthy volunteer donors following the existing protocol[82] and pelleted by centrifugation at 1000g for 2 min. The supernatant was discarded, and the PBMC pellet was resuspended in PBS containing 2% FBS for washing. The suspension was centrifuged at 1000g for 2 min again, and the PBMC pellet was resuspended in Roswell Park Memorial Institute (RPMI)-1640 (Gibco) media supplemented with 10% FBS. The cells were then seeded into six-well plates and treated with testing compounds at indicated concentrations and time periods. After treatment, the cells were collected into a 2 mL Eppendorf tube and centrifuged at 500g for 2 min to pellet the cells, the supernatant was discarded, and the pellet was resuspended in 1 mL PBS and centrifuged at 500g for 2 min again. The PBMC pellet was lysed with 60 μL of lysis buffer containing 50 mM tris–HCl, pH 7.5, 1% (v/v) Triton X-100, 1 mM ethylene glycol-bis(β-aminoethyl ether)-N,N,N′,N′-tetraacetic acid (EGTA), 1 mM sodium orthovanadate, 50 mM NaF, 0.1% (v/v) 2-mercaptoethanol, 10 mM 2-glycerophosphate, 5 mM sodium pyrophosphate, 0.1 μg/mL microcystin-LR (Enzo Life Sciences), 270 mM sucrose, and 0.5 mM diisopropyl fluorophosphate (DIFP) (Sigma-Aldrich, Cat# D0879) in addition to a complete EDTA-free protease inhibitor cocktail (Sigma-Aldrich Cat # 11836170001). DIFP is highly toxic and must be prepared in a fume hood to a stock solution of 0.5 M in isopropanol. The lysed cells were then centrifuged at 1500g for 15 min at 0 °C. The supernatants were collected for analysis by quantitative immunoblotting. For long-term storage, the supernatant was flash-frozen and stored at −80 °C. Protein concentrations of cell lysates were determined using the Pierce BCA Protein Assay Kit (Thermo Fisher).
Cell lysates containing a quarter of a volume of 4× NuPAGE LDS sample buffer (NP0007) supplemented with 5% β-mercaptoethanol were heated at 95 °C for 5 min. Samples (15–20 μg) were loaded onto precast 4–12% bis–tris midi 20W or 26W gels (Thermo Fisher Scientific, Cat# WG1402BOX or WG1403BOX) and resolved at 130 V for 2 h with a NuPAGE MOPS SDS running buffer (Thermo Fisher Scientific Cat# NP0001-02). Proteins were electrophoretically transferred onto a 0.45 μm nitrocellulose membrane (GE Healthcare, Amersham Protran Supported […] NC) at 90 V for 90 min on ice in a transfer buffer (48 mM tris base and 39 mM glycine supplemented with 20% methanol).

T1 sequence (Q5S007 whole entry): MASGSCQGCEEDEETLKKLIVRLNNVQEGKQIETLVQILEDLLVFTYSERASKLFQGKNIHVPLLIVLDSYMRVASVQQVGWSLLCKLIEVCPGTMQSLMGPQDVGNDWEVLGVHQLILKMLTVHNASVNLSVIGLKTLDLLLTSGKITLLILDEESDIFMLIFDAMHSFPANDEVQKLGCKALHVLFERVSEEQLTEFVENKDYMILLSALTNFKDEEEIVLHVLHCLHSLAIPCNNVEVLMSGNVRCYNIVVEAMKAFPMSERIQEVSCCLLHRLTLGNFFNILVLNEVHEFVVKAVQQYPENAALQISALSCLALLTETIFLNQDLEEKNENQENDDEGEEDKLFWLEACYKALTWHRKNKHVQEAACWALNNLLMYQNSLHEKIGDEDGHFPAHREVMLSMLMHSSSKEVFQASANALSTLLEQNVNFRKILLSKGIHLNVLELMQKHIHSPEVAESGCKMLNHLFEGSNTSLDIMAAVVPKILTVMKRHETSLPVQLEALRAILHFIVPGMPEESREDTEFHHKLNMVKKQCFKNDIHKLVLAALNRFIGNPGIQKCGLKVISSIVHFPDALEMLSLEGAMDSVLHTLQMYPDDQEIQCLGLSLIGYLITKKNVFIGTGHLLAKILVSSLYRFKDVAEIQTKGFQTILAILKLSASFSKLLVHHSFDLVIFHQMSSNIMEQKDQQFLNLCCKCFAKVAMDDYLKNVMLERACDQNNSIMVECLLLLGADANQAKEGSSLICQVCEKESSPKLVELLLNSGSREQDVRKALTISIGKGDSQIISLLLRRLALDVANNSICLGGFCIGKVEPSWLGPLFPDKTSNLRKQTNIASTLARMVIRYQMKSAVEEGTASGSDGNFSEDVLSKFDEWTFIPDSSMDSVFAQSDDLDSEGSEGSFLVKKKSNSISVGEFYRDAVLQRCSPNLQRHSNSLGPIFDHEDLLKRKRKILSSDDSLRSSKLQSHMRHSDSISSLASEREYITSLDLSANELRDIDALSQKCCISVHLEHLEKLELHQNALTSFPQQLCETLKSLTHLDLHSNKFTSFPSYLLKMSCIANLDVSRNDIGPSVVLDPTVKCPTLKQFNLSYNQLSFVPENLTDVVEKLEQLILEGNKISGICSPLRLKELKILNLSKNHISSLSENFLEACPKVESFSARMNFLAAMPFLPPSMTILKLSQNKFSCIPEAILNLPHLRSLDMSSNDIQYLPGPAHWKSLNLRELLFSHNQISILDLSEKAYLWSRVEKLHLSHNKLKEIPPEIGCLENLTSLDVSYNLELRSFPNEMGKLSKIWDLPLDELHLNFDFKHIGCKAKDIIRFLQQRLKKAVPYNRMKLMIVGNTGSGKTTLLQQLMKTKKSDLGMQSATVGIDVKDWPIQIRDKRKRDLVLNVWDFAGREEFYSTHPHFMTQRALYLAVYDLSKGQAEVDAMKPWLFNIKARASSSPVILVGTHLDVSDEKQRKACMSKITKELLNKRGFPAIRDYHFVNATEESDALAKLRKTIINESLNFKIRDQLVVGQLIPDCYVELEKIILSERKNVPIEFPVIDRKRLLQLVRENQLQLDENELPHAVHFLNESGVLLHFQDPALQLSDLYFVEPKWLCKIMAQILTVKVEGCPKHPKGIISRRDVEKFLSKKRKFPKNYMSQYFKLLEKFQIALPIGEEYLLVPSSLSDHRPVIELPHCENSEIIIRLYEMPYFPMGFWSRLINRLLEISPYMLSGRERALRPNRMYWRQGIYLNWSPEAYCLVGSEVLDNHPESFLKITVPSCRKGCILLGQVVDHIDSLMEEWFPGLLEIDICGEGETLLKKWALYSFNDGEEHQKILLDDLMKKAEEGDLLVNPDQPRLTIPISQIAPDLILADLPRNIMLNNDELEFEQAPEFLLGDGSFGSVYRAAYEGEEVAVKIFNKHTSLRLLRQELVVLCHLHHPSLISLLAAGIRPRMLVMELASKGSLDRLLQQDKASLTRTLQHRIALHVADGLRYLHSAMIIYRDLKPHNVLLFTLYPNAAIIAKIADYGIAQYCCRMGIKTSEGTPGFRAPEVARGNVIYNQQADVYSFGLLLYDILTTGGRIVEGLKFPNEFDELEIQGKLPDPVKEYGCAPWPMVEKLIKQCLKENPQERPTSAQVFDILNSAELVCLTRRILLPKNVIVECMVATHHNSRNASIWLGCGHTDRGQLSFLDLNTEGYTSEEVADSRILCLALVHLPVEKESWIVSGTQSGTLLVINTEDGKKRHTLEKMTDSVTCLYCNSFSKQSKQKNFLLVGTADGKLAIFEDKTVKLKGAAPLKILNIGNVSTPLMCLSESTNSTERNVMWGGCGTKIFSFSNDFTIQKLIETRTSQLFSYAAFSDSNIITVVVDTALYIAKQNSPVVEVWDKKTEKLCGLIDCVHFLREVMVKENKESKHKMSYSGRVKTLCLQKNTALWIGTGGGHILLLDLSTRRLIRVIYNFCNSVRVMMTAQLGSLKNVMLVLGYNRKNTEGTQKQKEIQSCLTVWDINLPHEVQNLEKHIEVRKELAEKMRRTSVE

Compound	DC50 (4 h, read-out: DC50,4h (LRRK2)) [nM]	DC50 (24 h, read-out: DC50,24h (LRRK2)) [nM]	DC50,4h (LRRK2) (4 h)	Dmax (LRRK2) (4 h)	DC50,24h (LRRK2) (24 h)	Dmax (LRRK2) (24 h)
CNc1nc(Nc2ccc(C(=O)N3CCN(C[C@H]4CC[C@H](CSC(C)(C)[C@H](NC(=O)C5(F)CC5)C(=O)N5C[C@H](O)CC5C(=O)NCc5ccc(-c6scnc6C)cc5)CC4)CC3)cc2OC)ncc1Cl (stereo partly drawn) [XL01126, (2S,4R)-1-((R)-3-((((1R,4R)-4-((4-(4-((5-Chloro-4-(methylamino)pyrimidin-2-yl)amino)-3-methoxybenzoyl)piperazin-1-yl)methyl)cyclohexyl)methyl)thio)-2-(1-fluorocyclopropane-1-carboxamido)-3-methylbutanoyl)-4-hydroxy-N-(4-(4-methylthiazol-5-yl)benzyl)pyrrolidine-2-carboxamide]	72	17				
CNc1nc(Nc2ccc(C(=O)N3CCN(C[C@H]4CC[C@H](CSC(C)(C)[C@H](NC(=O)C5(F)CC5)C(=O)N5C[C@@H](O)C[C@H]5C(=O)NCc5ccc(-c6scnc6C)cc5)CC4)CC3)cc2OC)ncc1Cl [cis-XL01126, (2S,4S)-1-((R)-3-((((1R,4R)-4-((4-(4-((5-Chloro-4-(methylamino)pyrimidin-2-yl)amino)-3-methoxybenzoyl)piperazin-1-yl)methyl)cyclohexyl)methyl)thio)-2-(1-fluorocyclopropane-1-carboxamido)-3-methylbutanoyl)-4-hydroxy-N-(4-(4-methylthiazol-5-yl)benzyl)pyrrolidine-2-carboxamide]			NDO	NDO	NDO	NDO
